Results from ChEMBL document CHEMBL4680330, “Soloxolone methyl, as a 18βH-glycyrrhetinic acid derivate, may result in endoplasmic reticulum stress to induce apoptosis in breast cancer cells” (Bioorg Med Chem, 2021).
Active and inactive are the calls of the source. No cut-off for these calls is given here.

Key:
MCF7 [1] = assay: Cytotoxicity against human MCF7 cells assessed as reduction in cell viability incubated for 24 hrs by ATP based luminometry; format: functional; settings: MCF7, 24 h
MCF7 [2] = assay: Cytotoxicity against human MCF7 cells assessed as reduction in cell viability incubated for 48 hrs by ATP based luminometry; format: functional; settings: MCF7, 48 h
MCF7 [3] = assay: Induction of apoptosis in human MCF7 cells assessed as PARP level at 10 uM incubated for 24 hrs by Western blot analysis (reference value: 1); format: functional
MCF7 [4] = assay: Induction of early apoptosis in human MCF7 cells assessed as increase in pycnotic nuclei at 10 uM incubated for 24 hrs by Hoechst 33342 and PI staining based fluorescence microscopic analysis; format: functional, cell-based
MCF7 [5] = assay: Induction of apoptosis in human MCF7 cells assessed as cytokeratin 18 by measuring increase in M-30 level at 10 uM incubated for 48 hrs by ELISA; format: functional, cell-based
MCF7 [6] = assay: Induction of apoptosis in human MCF7 cells assessed as early apoptotic cells at 10 uM incubated for 24 hrs by annexin V-FITC and PI staining based flow cytometry analysis (reference value: 0.20 %); format: functional
MDA-MB-231 [7] = assay: Induction of apoptosis in human MDA-MB-231 cells assessed as viable cells at 10 uM incubated for 24 hrs by annexin V-FITC and PI staining based flow cytometry analysis (reference value: 94.40 %); format: functional; settings: read-out: Activity
MDA-MB-231 [8] = assay: Induction of apoptosis in human MDA-MB-231 cells assessed as necrotic cells at 10 uM incubated for 24 hrs by annexin V-FITC and PI staining based flow cytometry analysis (reference value: 0.95 %); format: functional
MCF7 [9] = assay: Induction of apoptosis in human MCF7 cells at 10 uM by annexin V-FITC and PI staining based flow cytometry analysis; format: functional, cell-based; settings: TDE = time-dependent effect
[10] = Induction of caspase 3/7 activity in human MCF7 cells assessed as induction of apoptosis by measuring late apoptotic cells at 10 uM incubated for 24 hrs by flow cytometry analysis (reference value: 22.90 %); format: functional
[11] = Induction of caspase 3/7 activity in human MDA-MB-231 cells assessed as induction of apoptosis by measuring early apoptotic cells at 10 uM incubated for 24 hrs by flow cytometry analysis (reference value: 0.35 %); format: functional
[12] = Induction of caspase 3/7 activity in human MDA-MB-231 cells assessed as induction of apoptosis by measuring late apoptotic cells at 10 uM incubated for 24 hrs by flow cytometry analysis (reference value: 1.55 %); format: functional
MCF7 [13] = assay: Induction of ROS production in human MCF7 cells at 10 uM incubated for 24 hrs by flow cytometry analysis; format: functional, cell-based
MDA-MB-231 [14] = assay: Induction of ROS production in human MDA-MB-231 cells at 10 uM incubated for 24 hrs by flow cytometry analysis relative to control; format: functional
MCF7 [15] = assay: Induction of cell death in human MCF7 cells assessed as upregulation of HRK gene at 10 uM incubated for 24 hrs by RT-PCR analysis; format: functional, cell-based
MDA-MB-231 [16] = assay: Induction of cell death in human MDA-MB-231 cells assessed as upregulation of HRK gene at 10 uM incubated for 48 hrs by RT-PCR analysis; format: functional, cell-based
MCF7 [17] = assay: Induction of cell death in human MCF7 cells assessed as downregulation of PARP gene at 10 uM incubated for 48 hrs by RT-PCR analysis; format: functional, cell-based
MCF7 [18] = assay: Induction of cell death in human MCF7 cells assessed as downregulation of RIPK gene at 10 uM incubated for 48 hrs by RT-PCR analysis; format: functional, cell-based
MDA-MB-231 [19] = assay: Induction of cell death in human MDA-MB-231 cells assessed as upregulation of BECN1 gene at 10 uM measured after 48 hrs by RT-PCR analysis; format: functional, cell-based
MCF7 [20] = assay: Induction of cell death in human MCF7 cells assessed as downregulation of RIPK gene at 10 uM measured after 48 hrs by RT-PCR analysis; format: functional, cell-based
MDA-MB-231 [21] = assay: Induction of cell death in human MDA-MB-231 cells assessed as downregulation of MLKL gene at 10 uM measured after 48 hrs by RT-PCR analysis; format: functional, cell-based
MDA-MB-231 [22] = assay: Induction of cell death in human MDA-MB-231 cells assessed as downregulation of PARP gene at 10 uM measured after 48 hrs by RT-PCR analysis; format: functional, cell-based
MDA-MB-231 [23] = assay: Induction of cell death in human MDA-MB-231 cells assessed as downregulation of RIPK gene at 10 uM measured after 48 hrs by RT-PCR analysis; format: functional, cell-based
MCF7 [24] = assay: Induction of apoptosis in human MCF7 cells assessed as cleaved PARP level at 10 uM incubated for 24 hrs by Western blot analysis (reference value: 1); format: functional
MDA-MB-231 [25] = assay: Induction of apoptosis in human MDA-MB-231 cells assessed as PARP level at 10 uM incubated for 24 hrs by Western blot analysis (reference value: 1); format: functional
MCF7 [26] = assay: Induction of apoptosis in human MCF7 cells assessed as pro-caspase 8 level at 10 uM incubated for 24 hrs by Western blot analysis (reference value: 1); format: functional
MCF7 [27] = assay: Induction of apoptosis in human MCF7 cells assessed as pro-caspase 3 level at 10 uM incubated for 24 hrs by Western blot analysis (reference value: 1); format: functional
MCF7 [28] = assay: Induction of endoplasmic reticulum stress in human MCF7 cells assessed as IRE1-alpha expression at 10 uM incubated for 24 hrs by Western blot analysis (reference value: 1); format: functional
MCF7 [29] = assay: Induction of endoplasmic reticulum stress in human MCF7 cells assessed as BIP expression at 10 uM incubated for 24 hrs by Western blot analysis (reference value: 1); format: functional
MCF7 [30] = assay: Induction of endoplasmic reticulum stress in human MCF7 cells assessed as CHOP expression at 10 uM incubated for 24 hrs by Western blot analysis (reference value: 1); format: functional
MDA-MB-231 [31] = assay: Induction of endoplasmic reticulum stress in human MDA-MB-231 cells assessed as BIP expression at 10 uM incubated for 24 hrs by Western blot analysis (reference value: 1); format: functional
MDA-MB-231 [32] = assay: Induction of endoplasmic reticulum stress in human MDA-MB-231 cells assessed as CHOP expression at 10 uM incubated for 24 hrs by Western blot analysis (reference value: 1); format: functional

For COC(=O)[C@@]1(C)CC[C@]2(C)CC[C@]3(C)[C@H](C(=O)C=C4[C@@]5(C)C=C(C#N)C(=O)C(C)(C)[C@@H]5CC[C@]43C)[C@@H]2C1, the IC50 (MCF7 [1]) was 11.7 µM, the IC50 (MCF7 [2]) was 4.22 µM and the “fold change (FC)” value (MCF7 [3]) was 0.3. The Activity (MCF7 [4]) was “Active”, the Activity (MCF7 [5]) was “Active” and the Activity (MCF7 [6]) was 0.2%. The viability at 10 µM (MDA-MB-231 [7]) was 25.2%, the Activity (MDA-MB-231 [8]) was 2.25% and the Activity (MCF7 [9]) was “Tde”. The Activity [10] was 24.55%, the Activity [11] was 12.75% and the Activity [12] was 76.4%. For the same compound, the Activity (MCF7 [13]) was “inactive”, the Activity (MDA-MB-231 [14]) was 49.6% and the Activity (MCF7 [15]) was “Active”. The Activity (MDA-MB-231 [16]) was “Active”, the Activity (MCF7 [17]) was “Active” and the Activity (MCF7 [18]) was “Active”. The Activity (MDA-MB-231 [19]) was “inactive”, the Activity (MCF7 [20]) was “inactive” and the Activity (MDA-MB-231 [21]) was “inactive”. The Activity (MDA-MB-231 [22]) was “inactive”, the Activity (MDA-MB-231 [23]) was “inactive” and the “fold change (FC)” value (MCF7 [24]) was 4.5. The “fold change (FC)” value (MDA-MB-231 [25]) was 0.6, the “fold change (FC)” value (MCF7 [26]) was 1.2 and the “fold change (FC)” value (MCF7 [27]) was 1.7. The “fold change (FC)” value (MCF7 [28]) was 0.6, the “fold change (FC)” value (MCF7 [29]) was 0.8 and the “fold change (FC)” value (MCF7 [30]) was 0.3. The “fold change (FC)” value (MDA-MB-231 [31]) was 2 and the “fold change (FC)” value (MDA-MB-231 [32]) was 6.
